{"source": "patent US20220281848A1", "about": "“PYRAZOLE-SUBSTITUTED PYRROLIDINONES AS HERBICIDES” (FMC Corporation, priority 2019, published 2022)", "tested_on": "plants", "test": "Test D pre-emergence, other plants of Tables D1 and D3", "format": "in vivo", "conditions": "preemergent", "outline": "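Damage was rated visually from 0 (none) to 100 (total), at 20 DAA for pre-emergence and 15 d for post-emergence. Plants grew from safener-treated seed in a glasshouse at 24/18° C. or 20/16° C. day/night, 65% humidity, watered twice daily.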"}
{"smiles": "CN1CC(c2cc(Cl)n(C)n2)C(C(=O)Nc2ccc(F)c(F)c2F)C1=O", "note": "(racemic) [Compound 31]", "values": [{"measurement": "ABUTH damage to plant (100=total damage; 0=no damage)", "setting": "Rates 15, 20 DAA", "result": 0}, {"measurement": "AMARE damage to plant (100=total damage; 0=no damage)", "setting": "Rates 15, 20 DAA", "result": 0}, {"measurement": "BIDPI damage to plant (100=total damage; 0=no damage)", "setting": "Rates 15, 20 DAA", "result": 0}, {"measurement": "BRAPL damage to plant (100=total damage; 0=no damage)", "setting": "Rates 15, 20 DAA", "result": 0}, {"measurement": "CYPES damage to plant (100=total damage; 0=no damage)", "setting": "Rates 15, 20 DAA", "result": 0}, {"measurement": "DIGSA damage to plant (100=total damage; 0=no damage)", "setting": "Rates 15, 20 DAA", "result": 0}, {"measurement": "ECHCG damage to plant (100=total damage; 0=no damage)", "setting": "Rates 15, 20 DAA", "result": 0}, {"measurement": "EPHHL damage to plant (100=total damage; 0=no damage)", "setting": "Rates 15, 20 DAA", "result": 0}, {"measurement": "GLXMA damage to plant (100=total damage; 0=no damage)", "setting": "Rates 15, 20 DAA", "result": 0}, {"measurement": "IPOHE damage to plant (100=total damage; 0=no damage)", "setting": "Rates 15, 20 DAA", "result": 0}, {"measurement": "ORYSA damage to plant (100=total damage; 0=no damage)", "setting": "Rates 15, 20 DAA", "result": 0}, {"measurement": "PANMI damage to plant (100=total damage; 0=no damage)", "setting": "Rates 15, 20 DAA", "result": 0}, {"measurement": "SETFA damage to plant (100=total damage; 0=no damage)", "setting": "Rates 15, 20 DAA", "result": 0}, {"measurement": "SORVU damage to plant (100=total damage; 0=no damage)", "setting": "Rates 15, 20 DAA", "result": 0}, {"measurement": "ABUTH damage to plant (100=total damage; 0=no damage)", "setting": "Rates 30, 20 DAA", "result": 0}, {"measurement": "AMARE damage to plant (100=total damage; 0=no damage)", "setting": "Rates 30, 20 DAA", "result": 0}, {"measurement": "BIDPI damage to plant (100=total damage; 0=no damage)", "setting": "Rates 30, 20 DAA", "result": 0}, {"measurement": "BRAPL damage to plant (100=total damage; 0=no damage)", "setting": "Rates 30, 20 DAA", "result": 10}, {"measurement": "CYPES damage to plant (100=total damage; 0=no damage)", "setting": "Rates 30, 20 DAA", "result": 0}, {"measurement": "DIGSA damage to plant (100=total damage; 0=no damage)", "setting": "Rates 30, 20 DAA", "result": 10}, {"measurement": "ECHCG damage to plant (100=total damage; 0=no damage)", "setting": "Rates 30, 20 DAA", "result": 0}, {"measurement": "EPHHL damage to plant (100=total damage; 0=no damage)", "setting": "Rates 30, 20 DAA", "result": 0}, {"measurement": "GLXMA damage to plant (100=total damage; 0=no damage)", "setting": "Rates 30, 20 DAA", "result": 0}, {"measurement": "IPOHE damage to plant (100=total damage; 0=no damage)", "setting": "Rates 30, 20 DAA", "result": 0}, {"measurement": "ORYSA damage to plant (100=total damage; 0=no damage)", "setting": "Rates 30, 20 DAA", "result": 0}, {"measurement": "PANMI damage to plant (100=total damage; 0=no damage)", "setting": "Rates 30, 20 DAA", "result": 0}, {"measurement": "SETFA damage to plant (100=total damage; 0=no damage)", "setting": "Rates 30, 20 DAA", "result": 0}, {"measurement": "SORVU damage to plant (100=total damage; 0=no damage)", "setting": "Rates 30, 20 DAA", "result": 0}, {"measurement": "ABUTH damage to plant (100=total damage; 0=no damage)", "setting": "Rates 60, 20 DAA", "result": 0}, {"measurement": "AMARE damage to plant (100=total damage; 0=no damage)", "setting": "Rates 60, 20 DAA", "result": 0}, {"measurement": "BIDPI damage to plant (100=total damage; 0=no damage)", "setting": "Rates 60, 20 DAA", "result": 0}, {"measurement": "BRAPL damage to plant (100=total damage; 0=no damage)", "setting": "Rates 60, 20 DAA", "result": 60}, {"measurement": "CYPES damage to plant (100=total damage; 0=no damage)", "setting": "Rates 60, 20 DAA", "result": 0}, {"measurement": "DIGSA damage to plant (100=total damage; 0=no damage)", "setting": "Rates 60, 20 DAA", "result": 50}, {"measurement": "ECHCG damage to plant (100=total damage; 0=no damage)", "setting": "Rates 60, 20 DAA", "result": 30}, {"measurement": "EPHHL damage to plant (100=total damage; 0=no damage)", "setting": "Rates 60, 20 DAA", "result": 0}, {"measurement": "GLXMA damage to plant (100=total damage; 0=no damage)", "setting": "Rates 60, 20 DAA", "result": 0}, {"measurement": "IPOHE damage to plant (100=total damage; 0=no damage)", "setting": "Rates 60, 20 DAA", "result": 0}, {"measurement": "ORYSA damage to plant (100=total damage; 0=no damage)", "setting": "Rates 60, 20 DAA", "result": 0}, {"measurement": "PANMI damage to plant (100=total damage; 0=no damage)", "setting": "Rates 60, 20 DAA", "result": 0}, {"measurement": "SETFA damage to plant (100=total damage; 0=no damage)", "setting": "Rates 60, 20 DAA", "result": 10}, {"measurement": "SORVU damage to plant (100=total damage; 0=no damage)", "setting": "Rates 60, 20 DAA", "result": 0}, {"measurement": "ABUTH damage to plant (100=total damage; 0=no damage)", "setting": "Rates 130, 20 DAA", "result": 0}, {"measurement": "AMARE damage to plant (100=total damage; 0=no damage)", "setting": "Rates 130, 20 DAA", "result": 0}, {"measurement": "BIDPI damage to plant (100=total damage; 0=no damage)", "setting": "Rates 130, 20 DAA", "result": 0}, {"measurement": "BRAPL damage to plant (100=total damage; 0=no damage)", "setting": "Rates 130, 20 DAA", "result": 80}, {"measurement": "CYPES damage to plant (100=total damage; 0=no damage)", "setting": "Rates 130, 20 DAA", "result": 0}, {"measurement": "DIGSA damage to plant (100=total damage; 0=no damage)", "setting": "Rates 130, 20 DAA", "result": 90}, {"measurement": "ECHCG damage to plant (100=total damage; 0=no damage)", "setting": "Rates 130, 20 DAA", "result": 30}, {"measurement": "EPHHL damage to plant (100=total damage; 0=no damage)", "setting": "Rates 130, 20 DAA", "result": 0}, {"measurement": "GLXMA damage to plant (100=total damage; 0=no damage)", "setting": "Rates 130, 20 DAA", "result": 0}, {"measurement": "IPOHE damage to plant (100=total damage; 0=no damage)", "setting": "Rates 130, 20 DAA", "result": 0}, {"measurement": "ORYSA damage to plant (100=total damage; 0=no damage)", "setting": "Rates 130, 20 DAA", "result": 0}, {"measurement": "PANMI damage to plant (100=total damage; 0=no damage)", "setting": "Rates 130, 20 DAA", "result": 0}, {"measurement": "SETFA damage to plant (100=total damage; 0=no damage)", "setting": "Rates 130, 20 DAA", "result": 30}, {"measurement": "SORVU damage to plant (100=total damage; 0=no damage)", "setting": "Rates 130, 20 DAA", "result": 0}, {"measurement": "ABUTH damage to plant (100=total damage; 0=no damage)", "setting": "Rates 250, 20 DAA", "result": 0}, {"measurement": "AMARE damage to plant (100=total damage; 0=no damage)", "setting": "Rates 250, 20 DAA", "result": 0}, {"measurement": "BIDPI damage to plant (100=total damage; 0=no damage)", "setting": "Rates 250, 20 DAA", "result": 0}, {"measurement": "BRAPL damage to plant (100=total damage; 0=no damage)", "setting": "Rates 250, 20 DAA", "result": 80}, {"measurement": "CYPES damage to plant (100=total damage; 0=no damage)", "setting": "Rates 250, 20 DAA", "result": 0}, {"measurement": "DIGSA damage to plant (100=total damage; 0=no damage)", "setting": "Rates 250, 20 DAA", "result": 90}, {"measurement": "ECHCG damage to plant (100=total damage; 0=no damage)", "setting": "Rates 250, 20 DAA", "result": 80}, {"measurement": "EPHHL damage to plant (100=total damage; 0=no damage)", "setting": "Rates 250, 20 DAA", "result": 0}, {"measurement": "GLXMA damage to plant (100=total damage; 0=no damage)", "setting": "Rates 250, 20 DAA", "result": 0}, {"measurement": "IPOHE damage to plant (100=total damage; 0=no damage)", "setting": "Rates 250, 20 DAA", "result": 0}, {"measurement": "ORYSA damage to plant (100=total damage; 0=no damage)", "setting": "Rates 250, 20 DAA", "result": 0}, {"measurement": "PANMI damage to plant (100=total damage; 0=no damage)", "setting": "Rates 250, 20 DAA", "result": 0}, {"measurement": "SETFA damage to plant (100=total damage; 0=no damage)", "setting": "Rates 250, 20 DAA", "result": 20}, {"measurement": "SORVU damage to plant (100=total damage; 0=no damage)", "setting": "Rates 250, 20 DAA", "result": 0}, {"measurement": "ABUTH damage to plant (100=total damage; 0=no damage)", "setting": "Rates 500, 20 DAA", "result": 0}, {"measurement": "AMARE damage to plant (100=total damage; 0=no damage)", "setting": "Rates 500, 20 DAA", "result": 0}, {"measurement": "BIDPI damage to plant (100=total damage; 0=no damage)", "setting": "Rates 500, 20 DAA", "result": 0}, {"measurement": "BRAPL damage to plant (100=total damage; 0=no damage)", "setting": "Rates 500, 20 DAA", "result": 90}, {"measurement": "CYPES damage to plant (100=total damage; 0=no damage)", "setting": "Rates 500, 20 DAA", "result": 0}, {"measurement": "DIGSA damage to plant (100=total damage; 0=no damage)", "setting": "Rates 500, 20 DAA", "result": 90}, {"measurement": "ECHCG damage to plant (100=total damage; 0=no damage)", "setting": "Rates 500, 20 DAA", "result": 90}, {"measurement": "EPHHL damage to plant (100=total damage; 0=no damage)", "setting": "Rates 500, 20 DAA", "result": 0}, {"measurement": "GLXMA damage to plant (100=total damage; 0=no damage)", "setting": "Rates 500, 20 DAA", "result": 0}, {"measurement": "IPOHE damage to plant (100=total damage; 0=no damage)", "setting": "Rates 500, 20 DAA", "result": 0}, {"measurement": "ORYSA damage to plant (100=total damage; 0=no damage)", "setting": "Rates 500, 20 DAA", "result": 0}, {"measurement": "PANMI damage to plant (100=total damage; 0=no damage)", "setting": "Rates 500, 20 DAA", "result": 0}, {"measurement": "SETFA damage to plant (100=total damage; 0=no damage)", "setting": "Rates 500, 20 DAA", "result": 90}, {"measurement": "SORVU damage to plant (100=total damage; 0=no damage)", "setting": "Rates 500, 20 DAA", "result": 0}]}
